Entries after “also recorded” stand apart in the source; their conditions may differ.
How the values were obtained:
MCF-7 cells = test: Concentration-dependent cellular uptake into MCF-7 cells at various pH, with and without Na+; assay type: cell-based, human; settings: for cellular uptake at pH 8.5 compared to pH 7.4 / cellular uptake at pH 8.5 in the absence of Na+ / cellular uptake at pH 5.5 compared to pH 7.4: 1–200 μM, 30 min; for cellular uptake at pH 8.5 in the absence of Na+: compared to presence of Na+; for Km: pH 8.5, read-out: Km(uM)@pH8.5
Method: MCF-7 human breast adenocarcinoma cells (HTB-22) were purchased from the American Type Culture Collection (ATCC, Manassas, VA, USA). MCF-7 cells were cultured in Dulbecco’s modified Eagle’s medium supplemented with L-glutamine (2.0 mM), heat-inactivated fetal bovine serum (10%), and penicillin (50 U/mL)–streptomycin (50 μg/mL) solution. MCF-7 cells (passages 8–25) were seeded at the density of 1 × 10^5 cells/well onto 24-well plates. The cells were used for the uptake experiments 1 day after seeding. All the studies were carried out as three biological replicates from the same cell passage.
For the following experiments, the MCF-7 cells were cultured, seeded, washed with HBSS, and preincubated as described above at the desired conditions (pH 5.5, 7.4, or 8.5, with and without Na^+). […] Subsequently, the cells were washed three times with ice-cold HBSS and lysed with 500 μL of 0.1 M NaOH (60 min). […] The cell-associated concentrations of each compound normalized to protein concentration were calculated from the standard curve that was prepared by spiking known concentrations of compounds to ACN including the selected internal standard (diclofenac to all studied compounds). The protein concentrations on each plate were determined as a mean of three samples by Bio-Rad Protein Assay based on the Bradford dye-binding method using BSA as a standard protein and measuring the absorbance (595 nm) by a multiplate reader (EnVision, PerkinElmer, Inc., Waltham, MA, USA).

SNATs [1] = test: Competitive cellular uptake in the presence of unselective SNAT ligand MeAIB in MCF-7 cells; assay type: cell-based, human; settings: 100 μM compound, 100 μM MeAIB, pH 7.4 or 8.5, 30 min
Method: The competitive uptake in the presence of unselective SNAT ligand, MeAIB (100 μM),[31],[32] was carried out as described above with HBSS buffer at pH 7.4 or pH 8.5 containing 100 μM of the studied compound. The cells were preincubated with the inhibitors for 10 min, and the incubation mixture was removed before adding the studied compound and the inhibitor to the cells. The competitive uptake (30 min) with the inhibitor was then carried out as the normal uptake described above. The concentrations of studied compounds were analyzed by the LC–MS/MS method and calculated from the spiked standard curve and normalized with the protein concentrations.

LAT1 [2] = settings: cited from earlier work; for IC50: ability to compete with natural LAT1-substrate L-Leu, read-out: IC50 (μM) of [^14C]-L-Leu Uptake; for LAT1 Properties (in words): merged cell over IC50, CLint and Kp columns
[3] = brain accumulation; cited from earlier work
LAT1 [4] = test system: LAT1; design: unit not given here; settings: CLint = Vmax/Km; cited from earlier work
SNATs [5] = test: Functionality of SNATs in MCF-7 cells with [3H]-L-proline uptake; assay type: cell-based, human; settings: for inhibition of the uptake of [^3H]-L-proline: MeAIB 100 μM
Method: After removal of the culture medium, MCF-7 cells were carefully washed with prewarmed HBSS (Hank’s balanced salt solution) containing 125.0 mM NaCl (or choline chloride in Na^+-free conditions), 4.8 mM KCl, 1.2 mM MgSO4, 1.2 mM KH2PO4, 1.3 mM CaCl2, 5.6 mM glucose, and 25.0 mM 4-(2-hydroxyethyl)piperazine-1-ethanesulfonic acid (HEPES) with pH adjusted to either 7.4 or 8.5 with 1 M NaOH (or KOH in sodium-free conditions). In the experiments at lower pH (4.5–6.5), 25.0 mM HEPES was replaced by 2-(N-morpholino)ethanesulfonic acid (MES), and pH was adjusted to 4.5, 5.5, and 6.5 by 1.0 M NaOH. Preincubation was done with 500 μL of prewarmed HBSS at 37 °C for 10 min before adding substrates (250 μL in HBSS) for the uptake experiments. The functionality of SNATs in MCF-7 cells was studied with a known SNAT substrate; the cells were incubated either with [^3H]-L-proline [1 μM (PerkinElmer, Waltham, MA, USA) in uptake buffer HBSS, 250 μL] at 37 °C for 1–60 min or with the uptake buffer (250 μL) consisting of 1–600 μM L-proline (containing 2 μCi [^3H]-L-proline) at 37 °C for 60 min.[38] After incubation, the uptake was stopped by adding 500 μL of ice-cold HBSS, and the cells were washed two times with ice-cold HBSS (2 × 500 μL). The cells were then lysed with 500 μL of 0.1 M NaOH (60 min), and the lysate was mixed with 3.5 mL of Emulsifier safe cocktail (Ultima Gold, PerkinElmer, Waltham, MA, USA). The radioactivity in the cells was measured by liquid scintillation counting (MicroBeta^2 counter, PerkinElmer Waltham, MA, USA). The concentrations of [^3H]-L-proline were calculated from the spiked standard curve at each pH and normalized with the protein concentrations. The SNAT-mediated uptake was confirmed by changing the pH of the uptake buffer in the absence of sodium ions and in the presence of unselective SNAT-ligand, MeAIB (100 μM).[31],[32]

SMILES	cellular uptake at pH 8.5 compared to pH 7.4 (MCF-7 cells)	cellular uptake at pH 8.5 in the absence of Na+ (MCF-7 cells)	Km (MCF-7 cells) [µM]	cellular uptake in the presence of MeAIB (SNATs [1])	IC50 (LAT1 [2]) [µM]	in vivo Kp values (AUCbrain/ AUCplasma) [3]	cellular uptake at pH 5.5 compared to pH 7.4 (MCF-7 cells)	Intrinsic Clearance (CLint) of LAT1-mediated uptake (LAT1 [4])	further results
COc1cc(/C=C/C(=O)Nc2cccc(C[C@H](N)C(=O)O)c2)ccc1O [Compound 7]	much higher	sodium-sensitive	184	decreased	1.1 ± 0.08	0.082			
CC(C(=O)NCC[C@H](N)C(=O)O)c1cccc(C(=O)c2ccccc2)c1 (some centres unmarked) [Compound 6]	decreased		422	decreased	89.1 ± 4.19	0.317			
N[C@@H](Cc1c[nH]c2ccccc12)C(=O)O [L-Trp, reference compound]	did not affect	did not affect		did not affect	50.5 ± 2.63		did not affect	146	
COc1cc(/C=C/C(=O)NCc2cccc(C[C@H](N)C(=O)O)c2)ccc1O [Compound 8]	much higher	sodium-sensitive	225	decreased	14.2 ± 0.91	0.052		0.3	
CC(C(=O)Nc1ccc(C[C@H](N)C(=O)O)cc1)c1cccc(C(=O)c2ccccc2)c1 (some centres unmarked) [Compound 3]	higher	increased	131	decreased	51.16 ± 0.1	0.050	higher	8.3	
CC(C(=O)Nc1cccc(C[C@H](N)C(=O)O)c1)c1cccc(C(=O)c2ccccc2)c1 (some centres unmarked) [Compound 2]	did not affect	did not affect	291	did not affect	0.54 ± 0.05	0.045	did not affect	11.2	
CNC(C)(C)C(=O)O [MeAIB, α-(methylamino)isobutyric acid]									inhibition of the uptake of [^3H]-L-proline (SNATs [5]; [^3H]-L-proline 25 μM): negligible; inhibition of the uptake of [^3H]-L-proline (SNATs [5]; [^3H]-L-proline 50 and 100 μM): able to inhibit; LAT1 Properties (in words) (LAT1 [2]): Not an LAT1 substrate
N[C@@H](Cc1cccc(C(=O)OCc2ccc(-c3ccc(-c4ccc5c(c4)COC5=O)s3)cc2)c1)C(=O)O [Compound 1]	much higher	decreased; also recorded: sodium-sensitive	412	decreased	1.54 ± 0.05	0.043		47.1	Vmax of cellular uptake (MCF-7 cells; pH 5.5): 29 nmol/min/mg protein; cellular uptake, times higher at pH 5.5 compared to pH 7.4 (MCF-7 cells; ratio of Vmax): 3.9 times; cellular uptake, times higher at pH 8.5 compared to pH 7.4 (MCF-7 cells; ratio of Vmax): 9.3 times
CC(C(=O)NCCCC[C@H](N)C(=O)O)c1cccc(C(=O)c2ccccc2)c1 (some centres unmarked) [Compound 5]	much higher	sodium-sensitive	102	decreased	82.7 ± 1.45	0.022		1.3	
O=C(O)[C@@H]1CCCN1 [[^3H]-L-proline]									Km (SNATs [5]; MCF-7 cells, 10–600 μM, 60 min): 1470 ± 257 µM; Vmax of [^3H]-L-proline uptake (SNATs [5]; MCF-7 cells, 10–600 μM, 60 min): 1.13 ± 0.15 nmol/min/mg protein; pH dependency of uptake (SNATs [5]; MCF-7 cells, pH 4.5–8.5 in the presence of Na+): significant pH dependency; uptake in the absence of sodium (SNATs [5]; MCF-7 cells, pH 7.4): significantly reduced
CC(C(=O)NCc1cccc(C[C@H](N)C(=O)O)c1)c1cccc(C(=O)c2ccccc2)c1 (some centres unmarked) [Compound 4]	much higher	sodium-sensitive	40	decreased	0.12 ± 0.01	0.017		4.5	
CCCN(CCC)S(=O)(=O)c1ccc(C(=O)O)cc1 [PRB, probenecid, reference compound]	decreased			did not affect			increased		LAT1 Properties (in words) (LAT1 [2]): Not an LAT1 substrate
N[C@@H](Cc1cc(I)c(Oc2cc(I)c(O)c(I)c2)c(I)c1)C(=O)O [T4, thyroxin, reference compound]	decreased			decreased	18 ± 1.41		increased	5.5	
